Experimental data as given in US20210386705A1, “APPLICATION OF CHIGLITAZAR AND RELATED COMPOUNDS THEREOF” (SHENZHEN CHIPSCREEN BIOSCIENCES CO., LTD., priority 2018, published 2021).

What was measured:
[1] = tested on: primary human dermal fibroblasts; assay: PDGF-BB stimulated proliferation of dermal fibroblasts (MTT assay); assay type: cell-based; details: MTT 72 hours, FIG. 3
Protocol: Primary human hepatic stellate cells or primary human dermal fibroblasts (HDF), both purchased from Sciencell, were seeded into 96-well plates with complete growth media (Stellate Cell Medium or Fibroblast Cell Medium) for 24 hours, followed by culturing overnight in the culture media free of serum and growth factors, and then the culture media were replaced by fresh medium containing platelet-derived growth factor (PDGF-BB) and the compounds to be tested at various concentrations, and the cells was cultured for another 72 hours. Measurement was performed using a conventional MTT assay kit (Promega). […] The inhibition of cell proliferation by the compounds was determined by comparing the absorbance value of the control group (FIGS. 2, 3).

THP-1 cells = assay: Inflammatory factor gene expression (MCP-1, TNFα) in PMA-activated THP-1 cells (qPCR); assay type: cell-based, human; details: 6 hours, FIG. 5
Protocol: Human acute monocytic leukemia mononuclear cell line (THP-1) cells were activated by a certain concentration of phorbol esters (Phorbol-12-myristate-13-acetate, PMA) and differentiated into macrophages. Through this cell model, the activating effects of sodium chiglitazar and other compounds on the expression of THP-1 related inflammatory factors were detected.
THP-1 cells were seeded into 6-well plates with complete growth media for 24 hours, and then the culture media were replaced by fresh media containing PMA and the compound to be tested (sodium chiglitazar) or the reference compound GFT505 (PPARα/δ dual agonist), and the cells were cultured for 6 hours. The total RNAs of the samples were extracted, and cDNA templates were synthesized by reverse transcription reaction (Transcriptor First Strand cDNA Synthesis Kit, Roche). Thereafter, a conventional PCR amplification kit (FastStart Universal SYBR@ Green Master (ROX), Roche) was used for semi-quantitative gene expression detection on the ABI StepOnePlus real-time quantitative PCR instrument.
The relative expression change of the target genes was obtained by using the internal reference β-actin gene (ACTB) as the standard for normalization, compared with the untreated cell samples, and the relative expression change folds were calculated (FIG. 5).

[2] = tested on: connective tissue growth factor (CTGF); assay: TGF-β1-activated hepatic stellate cells, CTGF gene expression (qPCR); assay type: cell-based, human; details: TGF-β1 stimulation, 24 hours; FIG. 4
Protocol: Human primary hepatic stellate cells were seeded into 6-well plates with complete growth media (Stellate Cell Medium) for 24 hours, and then the culture media were replaced by fresh media (free of serum and growth factors) containing TGF-β1 and the compound to be tested (sodium chiglitazar) or the reference compound PPARγ/α dual agonist pioglitazone or PPARα/δ dual agonist GFT505 (both purchased from Selleck), and the cells were cultured for 24 hours. The total RNAs of the samples were extracted, and reverse transcription reaction was performed. Thereafter, a conventional PCR amplification kit (FastStart Universal SYBR@ Green Master (ROX), Roche) was used for further detection, where the PCR primers were designed with reference to the NCBI standard mRNA sequence of the target genes (Table 2). PCR reaction and detection were carried out on the ABI StepOnePlus real-time quantitative PCR instrument.
By calculating the relative amount of transcripts was calculate by “Delta-Delta CT method” (Livak et al. Methods 2001), and using ACTB as the housekeeping gene for normalization and the average data of untreated human hepatic stellate cells as a reference control, the relative change folds of gene expression were obtained (FIG. 4).

[3] = tested on: α-smooth muscle actin (α-SMA); assay: TGF-β1-activated hepatic stellate cells, α-SMA gene expression (qPCR); assay type: cell-based, human; details: TGF-β1 stimulation, 24 hours; FIG. 4
Protocol: Human primary hepatic stellate cells were seeded into 6-well plates with complete growth media (Stellate Cell Medium) for 24 hours, and then the culture media were replaced by fresh media (free of serum and growth factors) containing TGF-β1 and the compound to be tested (sodium chiglitazar) or the reference compound PPARγ/α dual agonist pioglitazone or PPARα/δ dual agonist GFT505 (both purchased from Selleck), and the cells were cultured for 24 hours. The total RNAs of the samples were extracted, and reverse transcription reaction was performed. Thereafter, a conventional PCR amplification kit (FastStart Universal SYBR@ Green Master (ROX), Roche) was used for further detection, where the PCR primers were designed with reference to the NCBI standard mRNA sequence of the target genes (Table 2). PCR reaction and detection were carried out on the ABI StepOnePlus real-time quantitative PCR instrument. By calculating the relative amount of transcripts was calculate by “Delta-Delta CT method” (Livak et al. Methods 2001), and using ACTB as the housekeeping gene for normalization and the average data of untreated human hepatic stellate cells as a reference control, the relative change folds of gene expression were obtained (FIG. 4).

[4] = tested on: primary human hepatic stellate cells; assay: PDGF-BB stimulated proliferation of hepatic stellate cells (EdU and MTT assay); assay type: cell-based; details: EdU 24 hours, MTT 72 hours, FIGS. 1-2
Protocol: Primary human hepatic stellate cells (HSC) purchased from Sciencell Research Laboratories, Inc. were seeded into 96-well plates with complete growth media (Stellate Cell Medium) for 24 hours, followed by culturing overnight in culture media free of serum and growth factors, and then the culture media were replaced by fresh media containing platelet-derived growth factor (PDGF-BB) and the compounds to be tested (chiglitazar sodium or the reference compound PPARγ/α dual agonist pioglitazone purchased from Selleck Chemicals LLC) at various concentrations, and the cells were cultured for 24 hours. When the cells were treated with the compounds for the last 17 hours, EdU (5-ethynyl-2′-deoxyuridine) was added to the cells. Finally, the culture media were removed and the cells were fixed with formaldehyde. The amount of the EdU incorporated into the DNA of the cells was quantified by fluorescent Click-it EdU assay according to the manufacturer's instructions (Beyotime). […] The inhibition of cell proliferation by the compounds was determined by comparing the EdU incorporated value of the control group (FIG. 1). […]

Structure (SMILES): O=C(c1ccc(F)cc1)c1ccccc1N[C@@H](Cc1ccc(OCCn2c3ccccc3c3ccccc32)cc1)C(=O)[O-].[Na+] [sodium chiglitazar]
- Inhibition of in vitro proliferation of skin-derived fibroblasts [1]: had inhibitory activity
- Inhibition of phorbol esters-mediated activation of monocyte and related gene expression (THP-1 cells): significantly inhibit
- Effect on expression of connective tissue growth factor [2]: significant and dose-dependent inhibitory effect
- Effect on expression of α-smooth muscle actin [3]: significantly inhibited
- Inhibition of in vitro proliferation of liver-derived fibroblasts [4]: had inhibitory activity
